# According to patent US12565501B2, “Muscarinic acetylcholine M1 receptor antagonists” (Contineum Therapeutics, Inc., priority 2019, dated 2026):
# Target: T1, human M1 receptor (Homo sapiens, UniProt P11229)
# T1 sequence (P11229 1-460): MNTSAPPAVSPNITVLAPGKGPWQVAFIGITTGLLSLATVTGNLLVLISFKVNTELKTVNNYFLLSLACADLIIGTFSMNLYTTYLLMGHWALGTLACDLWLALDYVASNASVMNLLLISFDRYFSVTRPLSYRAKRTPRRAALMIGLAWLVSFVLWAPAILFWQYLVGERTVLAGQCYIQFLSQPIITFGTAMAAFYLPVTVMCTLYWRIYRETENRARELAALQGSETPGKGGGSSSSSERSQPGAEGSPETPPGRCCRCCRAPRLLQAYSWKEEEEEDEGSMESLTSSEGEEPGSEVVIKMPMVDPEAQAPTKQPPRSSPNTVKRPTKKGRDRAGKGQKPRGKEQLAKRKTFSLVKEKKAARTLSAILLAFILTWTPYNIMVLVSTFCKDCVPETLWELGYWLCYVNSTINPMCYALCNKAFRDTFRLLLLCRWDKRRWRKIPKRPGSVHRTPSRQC
# Experiment: In vitro functional assay of muscarinic acetylcholine receptor activity (aequorin calcium flux, reversal of EC80 acetylcholine response)
# Assay type: cell-based
# Details: CHO-K1 cells stably expressing human M1 receptor with aequorin; acetylcholine at EC80; calcium flux (luminescence); read-out: M1 IC50
# Method in brief: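 Antagonist mode: compound (final 0.1% DMSO) and coelenterazine-loaded M1/aequorin CHO-K1 cells incubated 30 min in the dark before EC80 acetylcholine addition. Calcium flash integrated as 40 s luminescence AUC; IC50 derived from dose-response curves.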
row,SMILES,IC50
1,"COc1ccc(F)c(C2(NCC(=O)N3CC4CCC(C3)N4c3ccc(C#N)cn3)CCC2)c1F [Example 117, 6-(3-((1-(2,6-difluoro-3-methoxyphenyl)cyclobutyl)glycyl)-3,8-diazabicyclo[3.2.1]octan-8-yl)nicotinonitrile]",100 to 1000 nM
2,"N#Cc1cc(N2C3CCC2CN(C(=O)COC2(c4ccncc4F)CCC2)C3)ccn1 [Example 282, 4-(3-(2-(1-(3-fluoropyridin-4-yl)cyclobutoxy)acetyl)-3,8-diazabicyclo[3.2.1]octan-8-yl)picolinonitrile]",10 to 100 nM
3,"[2H]C([2H])([2H])Oc1cc(C(F)(F)CCC(=O)N2CC3CCC(C2)N3c2ccc(C#N)cn2)ccn1 [Example 165, 6-(3-(4,4-difluoro-4-(2-(methoxy-d3)pyridin-4-yl)butanoyl)-3,8-diazabicyclo[3.2.1]octan-8-yl)nicotinonitrile]",10 to 100 nM
4,"N#Cc1ccc(N2C[C@H]3C[C@@H]2CN3C(=O)COC2(c3ccc(F)c(F)c3)CC2)nc1 [Example 285, 6-((1R,4R)-5-(2-(1-(3,4-difluorophenyl)cyclopropoxy)acetyl)-2,5-diazabicyclo[2.2.1]heptan-2-yl)nicotinonitrile]",> 1000 nM
5,"COc1cc(C(F)(F)COCC(=O)N2CC3CCC(C2)N3c2ccc(C#N)cn2)ccn1 [Example 277, 6-(3-(2-(2,2-difluoro-2-(2-methoxypyridin-4-yl)ethoxy)acetyl)-3,8-diazabicyclo[3.2.1]octan-8-yl)nicotinonitrile]",100 to 1000 nM
6,"N#Cc1ccc(N2[C@@H]3CC[C@H]2CN(C(=O)/C=C/C(F)(F)c2cccc4nccnc24)C3)nc1 [Example 125, 6-(3-((E)-4,4-difluoro-4-(quinoxalin-5-yl)but-2-enoyl)-3,8-diazabicyclo[3.2.1]octan-8-yl)nicotinonitrile]",< 10 nM
7,"N#Cc1ccc(N2C3CCC2CN(C(=O)COC2(c4ccc(Br)cc4)CC2)C3)nc1 [Example 208, 6-(3-(2-(1-(4-bromophenyl)cyclopropoxy)acetyl)-3,8-diazabicyclo[3.2.1]octan-8-yl)nicotinonitrile]",100 to 1000 nM
8,"COc1ccc(C2(OCC(=O)N3CC4CCC(C3)N4c3ccc(C#N)cn3)CCC2)nc1 [Example 256, 6-(3-(2-(1-(5-methoxypyridin-2-yl)cyclobutoxy)acetyl)-3,8-diazabicyclo[3.2.1]octan-8-yl)nicotinonitrile]",1000 to 10000 nM
9,"N#Cc1ccc(N2C3CCC2CN(C(=O)CCC(F)(F)c2cccc4ncnn24)C3)nc1 [Example 163, 6-(3-(4-([1,2,4]triazolo[1,5-a]pyridin-5-yl)-4,4-difluorobutanoyl)-3,8-diazabicyclo[3.2.1]octan-8-yl)nicotinonitrile]",< 10 nM
10,"N#Cc1ccc(N2C3CCC2CN(C(=O)COC2(c4ncc(F)cc4F)CCC2)C3)nc1 [Example 271, 6-(3-(2-(1-(3,5-difluoropyridin-2-yl)cyclobutoxy)acetyl)-3,8-diazabicyclo[3.2.1]octan-8-yl)nicotinonitrile]",100 to 1000 nM
11,"N#Cc1ccc(N2C3CCC2CN(C(=O)CNC2(c4cccnn4)CC2)C3)nc1 [Example 64, 6-(3-((1-(pyridazin-3-yl)cyclopropyl)glycyl)-3,8-diazabicyclo[3.2.1]octan-8-yl)nicotinonitrile]",100 to 1000 nM
12,"N#Cc1ccc(N2C3CCC2CN(C(=O)COC2(c4ccccn4)CCC2)C3)nc1 [Example 246, 6-(3-(2-(1-(pyridin-2-yl)cyclobutoxy)acetyl)-3,8-diazabicyclo[3.2.1]octan-8-yl)nicotinonitrile]",1000 to 10000 nM
13,"COc1cc(C(C)NCC(=O)N2CC3CCC(C2)N3c2ccc(C#N)cn2)ccc1F (racemic) [Example 57, 6-(3-((1-(4-fluoro-3-methoxyphenyl)ethyl)glycyl)-3,8-diazabicyclo[3.2.1]octan-8-yl)nicotinonitrile]",< 10 nM
14,"COc1cccc(C(F)(F)CCC(=O)N2CC3CCC(C2)N3c2ccc(C#N)cn2)n1 [Example 145, 6-(3-(4,4-difluoro-4-(6-methoxypyridin-2-yl)butanoyl)-3,8-diazabicyclo[3.2.1]octan-8-yl)nicotinonitrile]",< 10 nM
15,"N#Cc1ccc(N2C[C@H]3C[C@@H]2CN3C(=O)CNC2(c3ccc(F)cc3F)CC2)nc1 [Example 80, 6-((1R,4R)-5-((1-(2,4-difluorophenyl)cyclopropyl)glycyl)-2,5-diazabicyclo[2.2.1]heptan-2-yl)nicotinonitrile]",> 1000 nM
16,"N#Cc1ccc(N2[C@@H]3CC[C@H]2CN(C(=O)CCNC2(c4ccc(F)cc4F)CC2)C3)nc1 [Example 26, 6-(3-(3-((1-(2,4-difluorophenyl)cyclopropyl)amino)propanoyl)-3,8-diazabicyclo[3.2.1]octan-8-yl)nicotinonitrile]",10 to 100 nM

row,SMILES,IC50
1,"COc1c(F)ccc(C2(NCC(=O)N3CC4CCC(C3)N4c3ccc(C#N)cn3)CC2)c1F [Example 112, 6-(3-((1-(2,4-difluoro-3-methoxyphenyl)cyclopropyl)glycyl)-3,8-diazabicyclo[3.2.1]octan-8-yl)nicotinonitrile]",< 10 nM
2,"N#Cc1ccc(N2C3CCC2CN(C(=O)COC2(c4ccc(F)cc4)CC2)C3)nc1 [Example 205, 6-(3-(2-(1-(4-fluorophenyl)cyclopropoxy)acetyl)-3,8-diazabicyclo[3.2.1]octan-8-yl)nicotinonitrile]",100 to 1000 nM
3,"N#Cc1ccc(N2C3CCC2CN(C(=O)COC2(c4cccnn4)CCC2)C3)nc1 [Example 274, 6-(3-(2-(1-(pyridazin-3-yl)cyclobutoxy)acetyl)-3,8-diazabicyclo[3.2.1]octan-8-yl)nicotinonitrile]",10 to 100 nM
4,"COc1cc(C2(NCC(=O)N3CC4CCC(C3)N4c3ccc(C#N)cn3)CC2)ccc1F [Example 109, 6-(3-((1-(4-fluoro-3-methoxyphenyl)cyclopropyl)glycyl)-3,8-diazabicyclo[3.2.1]octan-8-yl)nicotinonitrile]",< 10 nM
5,"COc1ncccc1C1(OCC(=O)N2CC3CCC(C2)N3c2ccc(C#N)cn2)CCC1 [Example 254, 6-(3-(2-(1-(2-methoxypyridin-3-yl)cyclobutoxy)acetyl)-3,8-diazabicyclo[3.2.1]octan-8-yl)nicotinonitrile]",< 10 nM
6,"N#Cc1ccc(N2[C@@H]3CC[C@H]2CN(C(=O)CCNC2(c4cc(Cl)cc(Br)c4)CC2)C3)nc1 [Example 12, 6-(3-(3-((1-(3-bromo-5-chlorophenyl)cyclopropyl)amino)propanoyl)-3,8-diazabicyclo[3.2.1]octan-8-yl)nicotinonitrile]",100 to 1000 nM
7,"N#Cc1ccc(N2C3CCC2CN(C(=O)CCC(F)(F)c2ccc(F)cc2)C3)nc1 [Example 124, 6-(3-(4,4-difluoro-4-(4-fluorophenyl)butanoyl)-3,8-diazabicyclo[3.2.1]octan-8-yl)nicotinonitrile]",10 to 100 nM
8,"N#Cc1ccc(N2C3CCC2CN(C(=O)COC2(c4cccc(C#N)c4F)CC2)C3)nc1 [Example 290, 6-(3-(2-(1-(3-cyano-2-fluorophenyl)cyclopropoxy)acetyl)-3,8-diazabicyclo[3.2.1]octan-8-yl)nicotinonitrile]",1000 to 10000 nM
9,"N#Cc1ccc(N2C3CCC2CN(C(=O)COC2(c4ccccc4F)CC2)C3)nc1 [Example 207, 6-(3-(2-(1-(2-fluorophenyl)cyclopropoxy)acetyl)-3,8-diazabicyclo[3.2.1]octan-8-yl)nicotinonitrile]",10 to 100 nM
10,"COc1cc(C2(OCC(=O)N3CC4CCC(C3)N4c3ccc(C#N)cn3)COC2)ccn1 [Example 244, 6-(3-(2-((3-(2-methoxypyridin-4-yl)oxetan-3-yl)oxy)acetyl)-3,8-diazabicyclo[3.2.1]octan-8-yl)nicotinonitrile]",1000 to 10000 nM
11,"COc1ncccc1C(F)(F)CCC(=O)N1CC2CCC(C1)N2c1ccc(C#N)cn1 [Example 159, 6-(3-(4,4-difluoro-4-(2-methoxypyridin-3-yl)butanoyl)-3,8-diazabicyclo[3.2.1]octan-8-yl)nicotinonitrile]",< 10 nM
12,"N#Cc1ccc(N2[C@@H]3CC[C@H]2CN(C(=O)CCNC2(c4ccc(F)c(Cl)c4)CC2)C3)nc1 [Example 35, 6-(3-(3-((1-(3-chloro-4-fluorophenyl)cyclopropyl)amino)propanoyl)-3,8-diazabicyclo[3.2.1]octan-8-yl)nicotinonitrile]",10 to 100 nM
13,"COc1cncc(C2(OCC(=O)N3CC4CCC(C3)N4c3ccnc(C#N)c3)CCC2)c1 [Example 281, 4-(3-(2-(1-(5-methoxypyridin-3-yl)cyclobutoxy)acetyl)-3,8-diazabicyclo[3.2.1]octan-8-yl)picolinonitrile]",< 10 nM
14,"COc1ccc(F)cc1C1(NCC(=O)N2CC3CCC(C2)N3c2ccc(C#N)cn2)CC1 [Example 76, 6-(3-((1-(5-fluoro-2-methoxyphenyl)cyclopropyl)glycyl)-3,8-diazabicyclo[3.2.1]octan-8-yl)nicotinonitrile]",< 10 nM
15,"N#Cc1ccc(N2C3CCC2CN(C(=O)CNC(c2ccc(F)cc2F)C(F)F)C3)nc1 (racemic) [Example 128, 6-(3-((1-(2.4-difluorophenyl)-2,2-difluoroethyl)glycyl)-3,8-diazabicyclo[3.2.1]octan-8-yl)nicotinonitrile]",10 to 100 nM
16,"COc1cncc(C2(OCC(=O)N3CC4CCC(C3)N4c3ccc(C#N)cn3)COC2)c1 [Example 243, 6-(3-(2-((3-(5-methoxypyridin-3-yl)oxetan-3-yl)oxy)acetyl)-3,8-diazabicyclo [3.2.1]octan-8-yl)nicotinonitrile]",100 to 1000 nM
